Assay results: PMC5321741, “Arylmethylamino steroids as antiparasitic agents” (Nature Communications, 2017)

Columns and labels:
Type in all cases: cell-based
[1] = tested on: adult Schistosoma mansoni; assay: schistosome in vitro culture with inhibitor treatment; details: for morphological effects (confocal laser scanning microscopy): 5 μM, 6–13 days; for starting concentration with negative influence on worm physiology: pairing stability, egg production, survival, bright-field microscopy
[2] = tested on: HUVEC; assay: antiproliferative activity on HUVEC cells; details: Homo sapiens, HUVEC, 72 h
Procedure, shortened: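 K-562 and HeLa seeded at ∼10,000 cells/well; HeLa preincubated 48 h without compound before cytotoxicity testing. 72 h exposure at 37 °C, 5% CO2; K-562 counted by electronic cell analyzer, HUVEC and HeLa glutaraldehyde-fixed, methylene blue-stained, OD 660 nm; GI50 (antiproliferative) and CC50 (cytotoxicity) derived.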

[3] = tested on: Aspergillus terreus JMRC:SF:06307; assay: spore inhibition test; details: 48 h; start concentration 1 mg/ml (1o, 2o), 100 µg/ml (Amphotericin B)
Experimental: (§1) The following test organisms were used for their susceptibility to compounds 1o and 2o: Alternaria alternata JMRC:SF:09317, Arthroderma benhamiae JMRC:ST:35888, Aspergillus fumigatus JMRC:Afum:00073=ATCC 46645, Aspergillus terreus JMRC:SF:06307, Candida albicans JMRC:ST:35864, Lichtheimia corymbifera JMRC:SF:09682, Penicillium chrysogenum JMRC:SF:10137, Rhizopus arrhizus (syn. R. oryzae) JMRC:SF:05857=ATCC 56536, CBS 112.07.
(§2) Fungi were grown on 3% malt extract solidified medium for 1 to 2 weeks at room temperature. Then the plates were washed with 7 ml sterile distilled water, and the spore suspension was filtered through 4 layers of sterile Miracloth (Kalbiochem, USA) to remove the hyphae. The concentration of the spore suspension was set to 2 × 10^4 conidia ml^−1 for the in vitro assays.
(§3) The spore inhibition assay took place in 96-well microplates (flat base). 50 μl of the prepared spore suspension was seeded and then mixed with 50 μl of the respective inhibitor substance. Tests were started with end concentrations of 1 mg ml^−1 and were then reduced in a minimum of 10 halving steps. Thus a 2 mg ml^−1 stock solution diluted in half ten times with solvent (distilled water, 2% DMSO in distilled water, or 2% DMF in distilled water) and each 50 μl was transferred to 50 μl spore suspension. For each test substance, 12 holes on the microtiter plate were filled. After 24 h incubation (25 °C), the germination of the spores was macroscopically and microscopically examined directly in the microtiter plate via measurement of the optical density and light microscopy using an inverse stereomicroscope with subsequent photodocumentation, respectively. If necessary, the plates were further incubated for another 24 or 48 h, depending on the extent of fungal germination.

[4] = tested on: Candida albicans JMRC:ST:35864; assay: spore inhibition test; details: 48 h
Experimental: as §1, §2, §3

[5] = tested on: Penicillium chrysogenum JMRC:SF:10137; assay: spore inhibition test; details: 48 h
Experimental: as §1, §2, §3

[6] = tested on: Aspergillus fumigatus JMRC:Afum:00073; assay: spore inhibition test; details: 48 h; start concentration 1 mg/ml (1o, 2o), 100 µg/ml (Amphotericin B)
Experimental: as §1, §2, §3

[7] = tested on: Alternaria alternata JMRC:SF:09317; assay: spore inhibition test; details: 48 h; start concentration 1 mg/ml (1o, 2o), 100 µg/ml (Amphotericin B)
Experimental: as §1, §2, §3

[8] = tested on: Rhizopus arrhizus (syn. R. oryzae) JMRC:SF:05857; assay: spore inhibition test; details: 48 h; start concentration 1 mg/ml (1o, 2o), 100 µg/ml (Amphotericin B)
Experimental: as §1, §2, §3

[9] = tested on: Lichtheimia corymbifera JMRC:SF:09682; assay: spore inhibition test; details: 48 h; start concentration 1 mg/ml (1o, 2o), 100 µg/ml (Amphotericin B)
Experimental: as §1, §2, §3

[10] = tested on: Arthroderma benhamiae JMRC:ST:35888; assay: spore inhibition test; details: 72 h
Experimental: as §1, §2, §3

[11] = start concentration 1 mg/ml (1o, 2o), 100 µg/ml (Amphotericin B)
[12] = start concentration 1 mg/ml, given in mg

SMILES | morphological effects (confocal laser scanning microscopy) [1] | starting concentration with negative influence on worm physiology [1] [μM] | GI50 [2] [µM] | antifungal profile, 1st value = microscopic visualization-based observation, Aspergillus terreus [3] | antifungal profile, 2nd value = optical density-based observation, Aspergillus terreus [3] | antifungal profile, 2nd value = optical density-based observation, Candida albicans [4, 11] | antifungal profile, 2nd value = optical density-based observation, Penicillium chrysogenum [5, 11] | antifungal profile, 1st value = microscopic visualization-based observation, Aspergillus fumigatus [6] | antifungal profile, 2nd value = optical density-based observation, Aspergillus fumigatus [6] | antifungal profile, 1st value = microscopic visualization-based observation, Alternaria alternata [7] | antifungal profile, 2nd value = optical density-based observation, Alternaria alternata [7] | antifungal profile, 1st value = microscopic visualization-based observation, Rhizopus arrhizus [8] | antifungal profile, 2nd value = optical density-based observation, Rhizopus arrhizus [8] | antifungal profile, 1st value = microscopic visualization-based observation, Lichtheimia corymbifera [9] | antifungal profile, 2nd value = optical density-based observation, Lichtheimia corymbifera [9] | antifungal profile, 1st value = microscopic visualization-based observation, Arthroderma benhamiae [10, 11] | further results
COc1ccc2c(c1)CCC1C2CC[C@@]2(C)C1CC[C@H]2NCc1cc2ccccc2cc1O (stereo partly shown) [1o] | swellings and invaginations occurred at the tegument | 5 | 108 | 250 | 125 | 500 | 125 | 250 | 250 | 500 | 250 | 500 | 500 | 500 | 62.5 | 500 | reduction of egg production and motility ([1]; 10 µM, starting from days 1 and 2): about 75%; effect on survival ([1]; 20 µM, from day 2 on): nearly all worms were dead; antifungal profile, 1st value = microscopic visualization-based observation, Candida albicans [4, 12]: 1 mg; antifungal profile, 1st value = microscopic visualization-based observation, Penicillium chrysogenum [5, 12]: 1 mg; antifungal profile, 2nd value = optical density-based observation, Arthroderma benhamiae [10, 12]: 1 mg
COc1ccc2c(c1)CCC1C2CC[C@@]2(C)C1CC[C@@H]2NCc1cc2ccccc2cc1O (stereo partly shown) [2o] | the diameter of the testicular lobes was reduced, the ovary was disorganized | 1 | 13.8 | 250 | 4 | 250 | 125 | 250 | 125 | 125 | 15,6 | 500 | 500 | 62.5 | 7.8 | 31.2 | effect on survival ([1]; 10 µM): caused the death of the parasites within a week; time to death of worms ([1]; 10 µM): ≤ 3 days; time to death of worms ([1]; 20 µM): 1 days; antifungal profile, 1st value = microscopic visualization-based observation, Candida albicans [4, 11]: 500; antifungal profile, 1st value = microscopic visualization-based observation, Penicillium chrysogenum [5, 11]: 250; antifungal profile, 2nd value = optical density-based observation, Arthroderma benhamiae [10, 11]: 2
